According to article PMC8709206, “Study on Purification and Characterization of Polyphenol Oxidase from Acetes chinensis” (Molecules, 2021):

System: T1, Acetes chinensis PPO (polyphenol oxidase)
T1 construct: native enzyme purified from fresh shrimp (ammonium sulphate, DEAE, Phenyl-Sepharose HP); single SDS-PAGE band about 75 kDa
Experiment: absorbance at […] nm, Lineweaver-Burk
Assay type: biochemical
Conditions: 0.05 mol/L phosphate buffer pH 7.2, 40 °C, 40 min; Figure 2 caption names pyrocatechol, text names L-Dopa

Km: 846 µM
SMILES: N[C@@H](Cc1ccc(O)c(O)c1)C(=O)O [L-dopa]
